Test results taken from patent publication US20120295907A1, “INSECTICIDAL COMPOUNDS” (SYNGENTA CROP PROTECTION, LLC, priority 2009, published 2012).
Where two headings read alike, the source gives them in different places.

Tests used:
Type in all cases: in vivo
Thrips tabaci = Thrips tabaci (Onion Thrips) sunflower leaf disc spray test; details: foliar, 168 h, 200 ppm spray on sunflower leaf discs, population of mixed ages, 7 days, mortality
Spodoptera littoralis = Spodoptera littoralis (Egyptian Cotton Leafworm) cotton leaf disc spray test; details: foliar, 72 h, 200 ppm spray on cotton leaf discs, L1 larvae, mortality, feeding behavior, growth regulation 3 DAT
Diabrotica balteata = Diabrotica balteata (Corn Root Worm) artificial diet MTP test; details: 120 h, 200 ppm (concentration in well 18 ppm), L2 larvae, 5 days, larval mortality, growth regulation
Tetranychus urticae = Tetranychus urticae (Two-Spotted Spider Mite) bean leaf disc spray test; details: foliar, 192 h, read-out: control of Tetranychus urticae
Plutella xylostella = Plutella xylostella (Diamond Back Moth) artificial diet MTP test; details: 144 h, 200 ppm (concentration in well 18 ppm), L2 larvae, 6 days, larval mortality, growth regulation
Heliothis virescens = Heliothis virescens (Tobacco Budworm) egg test on artificial diet; details: 96 h, 200 ppm (concentration in well 18 ppm), eggs 0-24 h old on artificial diet, 4 days, egg mortality, larval mortality, growth regulation
[1] = 200 ppm spray on bean leaf discs, mite populations of mixed ages, 8 days, egg, larval and adult mortality

Measured: pest or weed control at 200 ppm

COc1c(NC(=O)c2c(Cl)cccc2[N+](=O)[O-])cccc1C(=O)Nc1c(Cl)cc(C(F)(C(F)(F)F)C(F)(F)C(F)(F)F)cc1Br (stereo not drawn) [B101]
≥ 80%: Thrips tabaci | Spodoptera littoralis | Diabrotica balteata | Tetranychus urticae; [1] | Plutella xylostella | Heliothis virescens

COc1c(NC(=O)c2ccc(Cl)c(OC)c2Cl)cccc1C(=O)Nc1c(Cl)cc(C(F)(C(F)(F)F)C(F)(F)C(F)(F)F)cc1Br (stereo not drawn) [B109]
≥ 80%: Thrips tabaci | Spodoptera littoralis | Diabrotica balteata | Tetranychus urticae; [1] | Plutella xylostella | Heliothis virescens

COc1c(NC(=O)c2cccc(CC#N)c2)cccc1C(=O)Nc1c(Cl)cc(C(F)(C(F)(F)F)C(F)(F)C(F)(F)F)cc1Br (stereo not drawn) [B110]
≥ 80%: Thrips tabaci | Spodoptera littoralis | Diabrotica balteata | Tetranychus urticae; [1] | Plutella xylostella | Heliothis virescens

COc1c(NC(=O)c2cc(C(F)(F)F)nn2C)cccc1C(=O)Nc1c(Cl)cc(C(F)(C(F)(F)F)C(F)(F)C(F)(F)F)cc1Br (stereo not drawn) [B113]
≥ 80%: Thrips tabaci | Spodoptera littoralis | Diabrotica balteata | Tetranychus urticae; [1] | Plutella xylostella | Heliothis virescens

COc1c(NC(=O)c2ccc(C(F)(F)F)nc2C)cccc1C(=O)Nc1c(Cl)cc(C(F)(C(F)(F)F)C(F)(F)C(F)(F)F)cc1Br (stereo not drawn) [B127]
≥ 80%: Thrips tabaci | Spodoptera littoralis | Diabrotica balteata | Tetranychus urticae; [1] | Plutella xylostella | Heliothis virescens

COc1c(NC(=O)c2sc(C)nc2C(F)(F)F)cccc1C(=O)Nc1c(Cl)cc(C(F)(C(F)(F)F)C(F)(F)C(F)(F)F)cc1Br (stereo not drawn) [B134]
≥ 80%: Thrips tabaci | Spodoptera littoralis | Diabrotica balteata | Tetranychus urticae; [1] | Plutella xylostella | Heliothis virescens

COc1c(NC(=O)c2ccc(Br)cc2Cl)cccc1C(=O)Nc1c(Cl)cc(C(F)(C(F)(F)F)C(F)(F)C(F)(F)F)cc1Br (stereo not drawn) [B135]
≥ 80%: Thrips tabaci | Spodoptera littoralis | Diabrotica balteata | Tetranychus urticae; [1] | Plutella xylostella | Heliothis virescens

COc1c(NC(=O)c2ccc([N+](=O)[O-])cc2C(F)(F)F)cccc1C(=O)Nc1c(Cl)cc(C(F)(C(F)(F)F)C(F)(F)C(F)(F)F)cc1Br (stereo not drawn) [B178]
≥ 80%: Thrips tabaci | Spodoptera littoralis | Diabrotica balteata | Tetranychus urticae; [1] | Plutella xylostella | Heliothis virescens

COc1c(NC(=O)c2ccc([N+](=O)[O-])cc2[N+](=O)[O-])cccc1C(=O)Nc1c(Cl)cc(C(F)(C(F)(F)F)C(F)(F)C(F)(F)F)cc1Br (stereo not drawn) [B180]
≥ 80%: Thrips tabaci | Spodoptera littoralis | Diabrotica balteata | Tetranychus urticae | Plutella xylostella | Heliothis virescens
